In patent US20140235630A1, “COMPOSITIONS AND METHODS FOR THE TREATMENT OF PROLIFERATIVE DISEASES” (Beth Israel Deaconess Medical Center, Inc., priority 2011, published 2014):

Key:
[1] = system: breast cancer cells isolated from tumors of MMTV-CreBRCA1^f/fp53+/− mice; assay: Rad51 foci immunofluorescence after ionizing radiation; assay type: cell-based, mouse; conditions: pre-treatment, 10 Gy, 6 hours post-irradiation
Method: FIGS. 5B-5E are immunofluorescence images of breast cancer cells isolated from primary tumors from MMTV-CreBRCA1^f/fp53+/− mice either treated with vehicle control (5B and 5C) or Compound A (5D and 5E) for 18 hours, followed by irradiation with 10 Gy IR 6 hours later cells, using antibodies against Rad51 and counterstained with DAPI. Rad51 foci are depicted as lighter punctuate signals within the cells (5C).
Cells were plated on coverslips in a 6-well plates and incubated overnight at 37° C. with 5% CO2 before drug treatment. Cells were exposed to 5-(2,6-dimorpholinopyrimidin-4-yl)-4-(trifluoromethyl)pyridin-2-amine (Compound A) for […] followed by irradiation (10 Gy). Cells were fixed with 3% paraformaldehyde and 2% sucrose diluted in PBS 6 h post-irradiation and subsequently permeabilized with 0.5% TritonX-100 buffer (20 mM HEPES pH7.4, 50 mM NaCl, 3 mM MgCl, 300 mM sucrose) for 3 minutes on ice. Cells were incubated with a primary rabbit anti human Rad-51 antiserum at 1:500 dilution in hybridization buffer (5% goat serum, 0.5% NaN3, 1×PBS) for 30 min at 37° C. and subsequently washed thrice in PBS before incubation with secondary antibody for 30 minutes at 37° C. Secondary antibody used was a donkey anti-rabbit Alexafluor 488 conjugated (Invitrogen) at a concentration of 1:50. […]

[2] = Intratumoral Compound A concentration by LC/MS/MS; assay type: in vivo, mouse; conditions: 3 hours after last dose; Compound A 30 mg/kg/day, alone or with Compound B 50 mg/kg/day
Method: FIG. 6F is a graph showing the intratumoral Compound A concentrations as assessed by mass spectrometry of tumor tissues harvested from animals 3 hours after last treatment with Compound A (30 mg/kg/day), Compound B (50 mg/kg/day), or their combination.
Metabolites from 100 mg of mouse tumor samples were extracted using 80% methanol according to Yuan et al. (Nat. Protoc., 7: 872-881, 2012) 10 μL were injected and analyzed using a 5500 QTRAP hybrid triple quadrupole mass spectrometer (AB/SCIEX) coupled to a Prominence UFLC HPLC system (Shimadzu) via selected reaction monitoring (SRM) for the Q1/Q3 transition of 410.8/367.0 for 5-(2,6-dimorpholinopyrimidin-4-yl)-4-(trifluoromethyl)pyridin-2-amine (Compound A). ESI voltage was +4900V in positive ion mode using a dwell time of 4 msec and collision energy of 45. Approximately 15 data points were obtained for Compound A per LC/MS/MS experiment. Samples were delivered to the MS via hydrophilic interaction chromatography (HILIC) using a 4.6 mm i.d×10 cm Amide Xbridge column (Waters) at 350 μL/min. Gradients were run starting from 85% buffer B (HPLC grade acetonitrile) to 42% B from 0-5 minutes; 42% B to 0% B from 5-16 minutes; 0% B was held from 16-24 minutes; 0% B to 85% B from 24-25 minutes; 85% B was held for 7 minutes to re-equilibrate the column. Compound A eluted at approximately 3.50 min. […]

[3] = system: tumor microvasculature (CD31) of MMTV-CreBRCA1^f/fp53+/− tumors; assay: Tumor vascularization: gross pathology, anti-CD31 stain, Chalkley count; assay type: in vivo, mouse
Method: All animal experiments were conducted in accordance with IACUC-approved protocols at Beth Israel Deaconess Medical Center, Boston, and at the University of Vall d'Hebron, Barcelona, Spain. Female […] were obtained by breeding BRCA1 conditional knockout mice from the NIH repository (01XC8, strain C57BL/6) (Xu et al. Nat. Genet., 22: 37-43, 1999); with MMTV-Cre (Jackson Laboratory B6129-TgN(MMTV-Cre)4Mam) (Wagner et al. Nucleic Acids Res., 25: 4323-4330, 1997) and p53 knockout (Taconic Farms, P53N12-M, C57BL/6) (Donehower et al. Nature, 356: 215-221, 1992). […] The floxed or wild type status of Brca1, the presence of the MMTV-Cre transgene and the p53 heterozygosity were determined by PCR. Mice were examined for the occurrence of tumors twice weekly. When tumormetrics were performed, the length and width of the tumor was determined using calipers, and the tumor volume was determined (width^2×length/2). Tumor volume was used as a measure of growth and was recorded as ratio to tumor volume at diagnosis. […] Proc. Natl. Acad. Sci. USA., 105: 17079-17084, 2008) and dosed at 50 mg/kg/day. For patient-derived tumor grafts consent for tumor use was obtained from patients under a protocol approved by the Vall d'Hebron Hospital Clinical Investigation Ethical Committee. Tumors were subcutaneously implanted in 6-week-old female HsdCpb:NMRI-Foxn1nu mice (Harlan Laboratories, Italy) Animals were supplemented with 1 μM estradiol (Sigma) in the drinking water. After tumor graft growth, tumor tissue was re-implanted into recipient mice, which were randomized upon implant growth. For immunohistochemistry we used anti-cleaved caspase 3 (CC3) (9661S, Cell Signalling, Rabbit polyclonal Asp175), anti-Ki67 (9106-S; Thermo Scientific, Rabbit monoclonal SP6). All other antibodies used are described in the immunoblotting section below. All immunohistochemistries were done as described previously (Burga et al. Breast Cancer Res., 13:[…], 2011) including antigen retrieval with a citrate-buffer. […]

For `Nc1cc(C(F)(F)F)c(-c2cc(N3CCOCC3)nc(N3CCOCC3)n2)cn1` [Compound A, 5-(2,6-dimorpholinopyrimidin-4-yl)-4-(trifluoromethyl)pyridin-2-amine], the “formation of Rad51 foci in response to ionizing radiation” value [1] was “completely blocked”, the “Compound A levels in tumor tissues” value [2] was “consistently in the micro-molar range” and the “gross pathology of tumors” value ([3]; 50 mg/kg/day via gavage, 2 and 6 weeks) was “central pallor and, eventually, central necrosis”. For the same compound, the “Chalkley count of CD31-positive microvessels: size and number of blood vessels” value ([3]; before versus after treatment) was “starkly reduced” and the “tumor microvasculature, anti-CD31 stain” value ([3]; center of tumor treated for 6 weeks) was “diminished”.
